Test system: CD8+CD45RO+ T-cell migration towards and away from HIV-1gp120
Assay: Inhibitor profile of T-cell movement towards and away from recombinant X4 gp120 in transmigration assays
Type: cell-based, human
Details: for inhibition of migration away from gp120: T-cells including HIV-specific CTL
Procedure: Transmigration assays: Transmigration assays were performed in a transwell system with a polycarbonate membrane of 6.5-mm diameter with 5 μm pore size (Corning, Corning, N.Y.) as described (Kim et al., 1998, Blood 91:4434-4443; Poznansky et al., 2000, Nat Med 6:543-548). Purified T-cell subpopulations (5×10^4 cells) were added to the upper chamber of each well in a total volume of 150 μl Iscove's modified media. SDF-1α (PeproTech, Rocky Hill, N.J.) or recombinant HIV-1 gp120 (Immunodiagnostics, Woburn, Mass., AIDS Reagent Repository, NIH or RW) was used at concentrations ranging from 2 ng/ml to […] in the lower, upper, or both lower and upper chambers of the transwell to generate a standard “checkerboard” analysis matrix of positive, negative and absent gradients. Recombinant variable loop deletion mutants of HIV-1IIIB gp120 including V1, V1.V2, and V1.V2.V3, were also used in these assays. Transwells were incubated for 3 hours at 37° C., after which cells were collected from the lower chamber and counted.
Specific components of the Gi-protein coupled receptor signaling pathway for SDF-1 can be blocked by a number of different chemical inhibitor (Poznansky et al., 2000, Nat Med 6:543-548; Poznansky et al., 2002, Clin. Invest. 109:1101-1110; Sotsios et al., 1999, J. Immunol. 163:5954-5963; Vlahakis et al. 2001, J. Clin. Invest. 107:207-215). The inhibitor profile for movement of resting T-cell subpopulations towards and away from recombinant X4 gp120 in transmigration assays had been established.

Molecule | inhibition of migration away from gp120 | inhibition of T-cell migration towards and away from HIV-1gp120 (CD8+CD45RO+ T-cells incubated with inhibitor prior to transmigration assay, FIG. 2)
Nc1ncnc2c1nc(Br)n2[C@@H]1O[C@@H]2COP(=O)(O)O[C@H]2[C@H]1O [8-Br-cAMP] | inhibited | 
pertussis toxin | inhibited | significantly inhibited
